Measurements reported in patent publication US9051304B2, “Carboxamide compounds and their use as calpain inhibitors V” (AbbVie Deutschland GmbH & Co. KG, priority 2009, dated 2015).
pKi: −log10 of the molar value.

What was measured:
[1] = biological target: T1, calpain-I isolated from human erythrocytes (Homo sapiens, UniProt P07384); test: Calpain I enzyme inhibition, kinetic fluorescence assay; type: biochemical; conditions: apparent Ki from IC50 by Cheng-Prussoff; human erythrocyte calpain-I
T1 construct: calpain-I—isolated from human erythrocytes; purchased Calbiochem 208713; host or cells: human erythrocytes (tissue isolate)
T1 sequence (P07384 1-714): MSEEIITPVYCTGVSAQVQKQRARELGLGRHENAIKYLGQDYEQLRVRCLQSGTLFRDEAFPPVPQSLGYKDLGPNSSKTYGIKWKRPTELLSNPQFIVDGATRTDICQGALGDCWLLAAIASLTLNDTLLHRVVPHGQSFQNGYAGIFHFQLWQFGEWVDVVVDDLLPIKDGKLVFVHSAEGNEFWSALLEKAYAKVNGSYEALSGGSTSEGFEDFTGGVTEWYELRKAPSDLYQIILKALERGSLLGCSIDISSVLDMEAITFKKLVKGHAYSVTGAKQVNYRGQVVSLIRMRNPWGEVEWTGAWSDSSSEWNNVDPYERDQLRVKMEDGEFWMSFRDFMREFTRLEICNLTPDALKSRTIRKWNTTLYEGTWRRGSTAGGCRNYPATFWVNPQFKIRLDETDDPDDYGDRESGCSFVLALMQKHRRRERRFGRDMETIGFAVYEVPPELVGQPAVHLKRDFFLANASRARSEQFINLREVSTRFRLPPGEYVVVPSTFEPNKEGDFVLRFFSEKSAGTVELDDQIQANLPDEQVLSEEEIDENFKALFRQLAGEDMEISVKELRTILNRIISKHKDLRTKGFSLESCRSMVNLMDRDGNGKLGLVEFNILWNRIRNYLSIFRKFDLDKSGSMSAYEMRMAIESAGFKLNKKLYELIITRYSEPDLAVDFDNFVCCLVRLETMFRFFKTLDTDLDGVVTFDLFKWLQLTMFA
T1 sequence (P04632 1-268 partner): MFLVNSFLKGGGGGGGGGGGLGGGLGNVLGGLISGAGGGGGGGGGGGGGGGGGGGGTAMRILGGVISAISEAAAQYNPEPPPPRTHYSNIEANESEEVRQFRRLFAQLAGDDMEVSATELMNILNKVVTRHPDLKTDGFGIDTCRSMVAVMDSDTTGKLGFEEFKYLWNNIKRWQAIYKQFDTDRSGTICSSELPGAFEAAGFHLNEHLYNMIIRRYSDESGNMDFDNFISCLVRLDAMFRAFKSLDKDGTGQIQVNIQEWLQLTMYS
Protocol: (§1) I Enzyme Inhibition in vitro:
(§2) Testing for blockade of the corresponding enzymic activities was carried out by means of kinetic fluorescence assays (excitation 390 nm, emission 460 nm).
(§3) Apparent Ki values were calculated from the experimentally determined IC50 values by the Cheng-Prussoff relation assuming a reversible competitive enzyme inhibition.
20 nM calpain-I—isolated from human erythrocytes (Calbiochem #208713), 100 μM Suc-Leu-Tyr-AMC (Bachem #I-1355) as substrate in buffer with 62 mM imidazole, 0.3 mM CaCl2, 0.10% CHAPS, 0.05% BSA, 1 mM DTT at pH 7.3 and room temperature.

[2] = biological target: T2, cathepsin B isolated from human liver (Homo sapiens, UniProt P07858); test: Cathepsin B enzyme inhibition, kinetic fluorescence assay; type: biochemical; conditions: selectivity ratio vs calpain
T2 construct: cathepsin B—isolated from human liver; purchased Calbiochem 219362; host or cells: human liver (tissue isolate)
Protocol: as §1, §2, §3
0.25 nM cathepsin B—isolated from human liver (Calbiochem #219362), 100 μM Z-Phe-Arg-AMC (Bachem #I-1160) as substrate 50 mM MES, 2 mM EDTA, 0.05% Brij 35, 2.5 mM L-cysteine, pH 6.0, room temperature.

[3] = biological target: T3, cathepsin K activated from recombinant human procathepsin K (Homo sapiens, UniProt P43235); test: Cathepsin K enzyme inhibition, kinetic fluorescence assay; type: biochemical; conditions: selectivity ratio vs calpain
T3 construct: purchased Calbiochem 342001; host or cells: E. coli
T3 sequence (P43235 115-329): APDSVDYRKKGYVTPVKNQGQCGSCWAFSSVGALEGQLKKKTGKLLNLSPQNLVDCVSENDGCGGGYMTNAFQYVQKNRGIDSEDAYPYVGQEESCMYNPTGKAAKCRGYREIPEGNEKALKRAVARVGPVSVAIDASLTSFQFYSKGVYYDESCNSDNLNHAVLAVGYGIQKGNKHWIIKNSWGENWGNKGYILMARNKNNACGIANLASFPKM
Protocol: as §1, §2, §3
3 nM cathepsin K—activated from recombinant human procathepsin K from E. coli (Calbiochem #342001), 10 μM Z-Gly-Pro-Arg-AMC (Biomol #P-142) as substrate in 50 mM MES, 2 mM EDTA, 0.05% Brij 35, 2.5 mM L-cysteine, pH 6.0, room temperature.

[4] = biological target: T4, cathepsin L isolated from human liver (Homo sapiens, UniProt P07711); test: Cathepsin L enzyme inhibition, kinetic fluorescence assay; type: biochemical; conditions: selectivity ratio vs calpain
T4 construct: cathepsin L—isolated from human liver; purchased Calbiochem 219402; host or cells: human liver (tissue isolate)
Protocol: as §1, §2, §3
1 nM cathepsin L—isolated from human liver (Calbiochem #219402), 2 μM Z-Phe-Arg-AMC (Bachem #I-1160) as substrate in 50 mM MES, 2 mM EDTA, 0.05% Brij 35, 2.5 mM L-cysteine, pH 6.0, room temperature.

[5] = biological target: T5, recombinant human cathepsin S (Homo sapiens, UniProt P25774); test: Cathepsin S enzyme inhibition, kinetic fluorescence assay; type: biochemical; conditions: selectivity ratio vs calpain
T5 construct: purchased Calbiochem 219343; host or cells: E. coli
Protocol: as §1, §2, §3
0.5 nM recombinant human cathepsin S from E. coli (Calbiochem #219343), 20 μM Z-Val-Val-Arg-AMC (Bachem #I-1540) as substrate in 50 mM MES, 2 mM EDTA, 0.05% Brij 35, 2.5 mM L-cysteine, pH 6.0, room temperature.

[6] = Cytosolic clearance in human liver cytosol; type: in vitro ADME; conditions: 0.5 μM compound, 1 mg/ml human liver cytosol, 37° C., pH 7.5; read-out: human cytCL (cytosolic clearance)
Protocol: (§4) III Assay for Determining Cytosolic Clearance of Compounds of Formula I: […]
(§5) For comparison purposes data measured with human liver cytosol were contrasted with those obtained with cynomolgus monkey liver cytosol.
(§6) 0.5 μM of a compound to be tested was incubated with 1 mg/ml of human liver cytosol as well as monkey liver cytosol at 37° C. in 0.5 M of phosphate buffer at pH 7.5 while shaking (commercial sources: female cynomolgus liver cytosol from Tebu bio, human liver cytosol from BDgentest).
(§7) In each case aliquots of 65 μl were taken after 0, 5, 10 and 15 min and transferred into wells of a wellplate which were immediately filled with 130 μl of ethanol to stop the reaction. The samples were kept frozen until analysis on a LC/MS/MS system (Applied Biosystems SCIEX 4000).
(§8) Read out parameters were the loss of parent compounds, from which the half life periods (T1/2) were calculated from.
(§9) To assess the stability of the compounds tested the clearance ranges were adjusted to the hepatic plasma flow of the different species according to the following scheme:
(§10) stable=from 0 to about ⅓ of the hepatic plasma flow;
(§11) moderately stable=from about ⅓ to about ⅔ of the hepatic plasma flow;
(§12) instable=more than ⅔ of the hepatic plasma flow.
(§13) Based on this adjustment the following qualifiers were assigned to evaluate the cytosolic stabilities of the compounds tested: […]

[7] = Cytosolic clearance in cynomolgus monkey liver cytosol; type: in vitro ADME; conditions: female; 0.5 μM compound, 1 mg/ml cynomolgus monkey liver cytosol, 37° C., pH 7.5; read-out: cyno cytCL (cytosolic clearance)
Protocol: as §4, §5, §6, §7, §8, §9, §10, §11, §12, §13

T4 sequence (P07711 114-333): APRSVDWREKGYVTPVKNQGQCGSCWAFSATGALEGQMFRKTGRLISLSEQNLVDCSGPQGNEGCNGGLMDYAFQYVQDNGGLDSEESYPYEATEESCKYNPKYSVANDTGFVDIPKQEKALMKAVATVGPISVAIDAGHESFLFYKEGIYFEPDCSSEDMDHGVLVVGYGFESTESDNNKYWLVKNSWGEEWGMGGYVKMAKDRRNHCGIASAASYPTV
T5 sequence (P25774 115-331): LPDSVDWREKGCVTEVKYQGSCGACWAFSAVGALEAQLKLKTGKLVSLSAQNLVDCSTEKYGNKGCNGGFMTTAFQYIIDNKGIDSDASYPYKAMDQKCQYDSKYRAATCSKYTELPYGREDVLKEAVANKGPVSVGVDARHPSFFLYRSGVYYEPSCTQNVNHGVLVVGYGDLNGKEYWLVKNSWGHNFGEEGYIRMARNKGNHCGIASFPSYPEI

Row | SMILES | pKi [1] | cytosolic intrinsic clearance at 0.5 μM [6] | cytosolic intrinsic clearance at 0.5 μM [7] | Calpain activity (Ki(calpain)) [1] | Sel cat. B (Ki(cathepsin B)/Ki(calpain) ratio) [2] | Sel cat. K (Ki(cathepsin K)/Ki(calpain) ratio) [3] | Sel cat. L (Ki(cathepsin L)/Ki(calpain) ratio) [4] | Sel cat. S (Ki(cathepsin S)/Ki(calpain) ratio) [5]
1 | CC(C)(C)ONC(=O)C(=O)C(Cc1ccccc1)NC(=O)c1cccnc1-n1ccc(-c2ccccc2)n1 (stereo not drawn) [Example 16, N-(4-{[(2-Methyl-2-propanyl)oxy]amino}-3,4-dioxo-1-phenyl-2-butanyl)-2-(3-phenyl-1H-pyrazol-1-yl)nicotinamide] | 6.22 to 6.52 |  |  |  | +++ (+++ means a Ki(cathepsin B)/Ki(calpain) ratio of >10) | ∘ | + (+ means 5≦Ki(cathepsin L)/Ki(calpain)≦10) | ++ (++ means 10<Ki(cathepsin S)/Ki(calpain)≦50)
2 | CCONC(=O)C(=O)C(Cc1ccccc1)NC(=O)[C@H]1CCC(=O)N1Cc1ccccc1 (stereo partly drawn) [Example 29, (2R)-1-benzyl-N-(4-(ethoxyamino)-3,4-dioxo-1-phenylbutan-2-yl)-5-oxopyrrolidine-2-carboxamide] |  |  |  | ∘ | +++ (+++ means a Ki(cathepsin B)/Ki(calpain) ratio of >10) | ++ (++ means 4<Ki(cathepsin K)/Ki(calpain)≦10) | ++ (++ means 10<Ki(cathepsin L)/Ki(calpain)≦50) | ++ (++ means 10<Ki(cathepsin S)/Ki(calpain)≦50)
3 | CONC(=O)C(=O)C(Cc1ccccc1)NC(=O)c1cccnc1-n1ccc(-c2ccc(N3CCOCC3)cc2)n1 (stereo not drawn) [Example 13, N-[4-(Methoxyamino)-3,4-dioxo-1-phenyl-2-butanyl]-2-{3-[4-(4-morpholinyl)phenyl]-1H-pyrazol-1-yl}nicotinamide] | 6.22 to 6.52 |  |  |  | ∘ | + (+ means 2≦Ki(cathepsin K)/Ki(calpain)≦4) | ++ (++ means 10<Ki(cathepsin L)/Ki(calpain)≦50) | ++ (++ means 10<Ki(cathepsin S)/Ki(calpain)≦50)

Continued, in another order:

Row | pKi [1] | cytosolic intrinsic clearance at 0.5 μM [6] | cytosolic intrinsic clearance at 0.5 μM [7] | Calpain activity (Ki(calpain)) [1] | SMILES | Sel cat. B (Ki(cathepsin B)/Ki(calpain) ratio) [2] | Sel cat. K (Ki(cathepsin K)/Ki(calpain) ratio) [3] | Sel cat. L (Ki(cathepsin L)/Ki(calpain) ratio) [4] | Sel cat. S (Ki(cathepsin S)/Ki(calpain) ratio) [5]
4 | > 6.70 | < 14 µL/min/mg | < 18 µL/min/mg |  | CCONC(=O)C(=O)C(Cc1ccccc1)NC(=O)c1cccnc1-n1ccc(-c2ccccc2)n1 (stereo not drawn) [Example 7, N-(4-(Ethoxyamino)-3,4-dioxo-1-phenylbutan-2-yl)-2-(3-phenyl-1H-pyrazol-1-yl)nicotinamide] | ++ (++ means 4<Ki(cathepsin B)/Ki(calpain)≦10) | + (+ means 2≦Ki(cathepsin K)/Ki(calpain)≦4) | ++ (++ means 10<Ki(cathepsin L)/Ki(calpain)≦50) | +++ (+++ means a Ki(cathepsin S)/Ki(calpain) ratio of >50)
5 | > 6.70 |  |  |  | CCONC(=O)C(=O)C(Cc1ccc(OC)cc1)NC(=O)c1cccnc1-n1ccc(-c2ccccc2)n1 (stereo not drawn) [Example 24, N-[4-(Ethoxyamino)-1-(4-methoxyphenyl)-3,4-dioxo-2-butanyl]-2-(3-phenyl-1H-pyrazol-1-yl)nicotinamid] | ++ (++ means 4<Ki(cathepsin B)/Ki(calpain)≦10) | + (+ means 2≦Ki(cathepsin K)/Ki(calpain)≦4) | ++ (++ means 10<Ki(cathepsin L)/Ki(calpain)≦50) | ++ (++ means 10<Ki(cathepsin S)/Ki(calpain)≦50)
